Results taken from US20220289794A1, “SYNTHETIC ANTIMICROBIAL PEPTIDES” (priority 2019, published 2022).
In brackets after ≈: the same amount, converted by molar mass. Read-outs that look alike come from different tables or passages of the source. Non-standard residues stand in square brackets, D forms with d. Residues, ends and D or L forms follow the SMILES beside them. Bip = N[C@@H](Cc1ccc(-c2ccccc2)cc1)C(=O)O; Dip = N[C@H](C(=O)O)C(c1ccccc1)c1ccccc1; 2Nal = N[C@@H](Cc1ccc2ccccc2c1)C(=O)O

Columns and labels:
[1] = tested on: human red blood cells; parameters: unit not given beside the values
[2] = tested on: Methicillin-resistant Staphylococcus aureus MRSA (ATCC BAA-1556)
[3] = tested on: S. aureus ATCC 29213
[4] = tested on: Pseudomonas aeruginosa (ATCC 27883)
[5] = tested on: Escherichia coli (ATCC 25922)

| Compound | MIC MRSA ATCC BAA-1556 [2] | MIC S. aureus ATCC 29213 [3] | MIC P. aeruginosa ATCC 27883 [4] | MIC E. coli ATCC 25922 [5] | MIC MRSA ATCC BAA-1556 ([2]; ATCC BAA-1556) | MIC S. aureus ATCC 29213 ([3]; ATCC 29213) | MIC P. aeruginosa ATCC 27883 ([4]; ATCC 27883) | MIC E. coli ATCC 25922 ([5]; ATCC 25922) | other results |
| --- | --- | --- | --- | --- | --- | --- | --- | --- | --- |
| N=C(N)NCCC[C@@H]1NC(=O)[C@H](CCCNC(=N)N)NC(=O)[C@H](Cc2c[nH]c3ccccc23)NC(=O)[C@H](C(c2ccccc2)c2ccccc2)NC(=O)[C@H](C(c2ccccc2)c2ccccc2)NC(=O)[C@H](CCCNC(=N)N)NC(=O)[C@H](CCCNC(=N)N)NC1=O [IFX-028, c[Arg-Arg-Arg-Arg-Dip-Dip-Trp]] (cyclo([Dip][Dip]WRRRR)) |  |  |  |  |  |  |  |  | HC50 [1]: 370 |
| c[PEG1-Arg-Arg-Arg-Arg-PEG1-Dip-Dip-Dip] [IFX-048] | 16 µg/mL | 16 µg/mL | 64 µg/mL | 64 µg/mL |  |  |  |  |  |
| N=C(N)NCCC[C@@H]1NC(=O)[C@H](CCCNC(=N)N)NC(=O)[C@H](Cc2ccc(-c3ccccc3)cc2)NC(=O)[C@H](Cc2ccc(-c3ccccc3)cc2)NC(=O)[C@H](Cc2ccc(-c3ccccc3)cc2)NC(=O)[C@H](CCCNC(=N)N)NC1=O [IFX-001, c[Arg-Arg-Arg-Bip-Bip-Bip]] (cyclo([Bip][Bip][Bip]RRR)) |  |  |  |  | 50 µg/mL (≈ 43.9 µM) | 50 µg/mL (≈ 43.9 µM) | >100 µg/mL | >100 µg/mL |  |
| N=C(N)NCCC[C@H](NC(=O)[C@H](CCCNC(=N)N)NC(=O)[C@H](CCCNC(=N)N)NC(=O)[C@@H](N)CCCNC(=N)N)C(=O)N[C@@H](CCCNC(=N)N)C(=O)N[C@H](C(=O)N[C@H](C(=O)N[C@H](C(=O)O)C(c1ccccc1)c1ccccc1)C(c1ccccc1)c1ccccc1)C(c1ccccc1)c1ccccc1 [IFX-012-1, NH2-Arg-Arg-Arg-Arg-Arg-Dip-Dip-Dip-OH] (H-RRRRR[Dip][Dip][Dip]-OH) |  |  |  |  | 3.1 µg/mL (≈ 2.11 µM) | 3.1 µg/mL (≈ 2.11 µM) | 50 µg/mL (≈ 34 µM) | 25 µg/mL (≈ 17 µM) |  |
| c[Arg-arg-Arg-arg-PEG4-Trp-naI-naI] [IFX-051] | 32 µg/mL | 32 µg/mL | 128 µg/mL | 128 µg/mL |  |  |  |  |  |
| N=C(N)NCCC[C@H]1NC(=O)[C@H](Cc2c[nH]c3ccccc23)NC(=O)[C@H](Cc2c[nH]c3ccccc23)NC(=O)[C@H](Cc2c[nH]c3ccccc23)NC(=O)[C@H](Cc2c[nH]c3ccccc23)NC(=O)[C@@H](CCCNC(=N)N)NC(=O)[C@@H](CCCNC(=N)N)NC(=O)[C@@H](CCCNC(=N)N)NC1=O [IFX-309] (cyclo([dR][dR][dR][dR]WWWW)) |  |  |  |  |  |  |  | 16 µg/mL (≈ 11.7 µM) |  |
| c[Arg-Arg-Arg-Arg-7metW-7metW-7metW-7metW] [IFX-042] | 6.2 µg/mL | 6.1 µg/mL | 50 µg/mL | 25 µg/mL |  |  |  |  |  |
| c[PEG4-Arg-arg-Arg-arg-Trp-naI-naI] [IFX-053] | 16 µg/mL | 16 µg/mL | 128 µg/mL | 64 µg/mL |  |  |  |  |  |
| c[PEG2-Arg-Arg-Arg-Arg-Arg-PEG2-Dip-Dip-Dip] [IFX-050-2] | 16 µg/mL | 16 µg/mL | 128 µg/mL | 64 µg/mL |  |  |  |  |  |
| N=C(N)NCCC[C@@H]1NC(=O)[C@H](CCCNC(=N)N)NC(=O)[C@H](CCCNC(=N)N)NC(=O)[C@H](Cc2ccc3ccccc3c2)NC(=O)[C@H](Cc2c[nH]c3ccccc23)NC(=O)[C@H](Cc2ccc3ccccc3c2)NC(=O)[C@H](CCCNC(=N)N)NC1=O [IFX-030, c[Arg-Arg-Arg-Arg-NaI-Trp-NaI]] (cyclo(RRRR[2Nal]W[2Nal])) |  |  |  |  |  |  |  |  | HC50 [1]: 430 |
| N=C(N)NCCC[C@H](NC(=O)[C@H](CCCNC(=N)N)NC(=O)[C@@H](N)CCCNC(=N)N)C(=O)N[C@@H](Cc1ccc(-c2ccccc2)cc1)C(=O)N[C@@H](Cc1ccc(-c2ccccc2)cc1)C(=O)N[C@@H](Cc1ccc(-c2ccccc2)cc1)C(=O)O [IFX-001-1, NH2-Arg-Arg-Arg-Bip-Bip-Bip-OH] (H-RRR[Bip][Bip][Bip]-OH) |  |  |  |  | 50 µg/mL (≈ 43.2 µM) | 50 µg/mL (≈ 43.2 µM) | >100 µg/mL | >100 µg/mL |  |
| N=C(N)NCCC[C@H](NC(=O)[C@H](CCCNC(=N)N)NC(=O)[C@H](CCCNC(=N)N)NC(=O)[C@@H](N)CCCNC(=N)N)C(=O)N[C@@H](Cc1ccc(-c2ccccc2)cc1)C(=O)N[C@@H](Cc1ccc(-c2ccccc2)cc1)C(=O)N[C@@H](Cc1ccc(-c2ccccc2)cc1)C(=O)N[C@@H](Cc1ccc(-c2ccccc2)cc1)C(=O)O [IFX-004-1, NH2-Arg-Arg-Arg-Arg-Bip-Bip-Bip-Bip-OH] (H-RRRR[Bip][Bip][Bip][Bip]-OH) |  |  |  |  | >100 µg/mL | >100 µg/mL | >100 µg/mL | >100 µg/mL |  |
| c[Arg-Arg-Arg-Arg-1meW-1meW-1meW-1meW] [IFX-041] | 6.2 µg/mL | 3.1 µg/mL | 25 µg/mL | 25 µg/mL |  |  |  |  |  |
| N=C(N)NCCC[C@@H]1NC(=O)[C@H](CCCNC(=N)N)NC(=O)[C@H](CCCNC(=N)N)NC(=O)[C@H](C(c2ccccc2)c2ccccc2)NC(=O)[C@H](C(c2ccccc2)c2ccccc2)NC(=O)[C@H](Cc2c[nH]c3ccccc23)NC(=O)[C@H](CCCNC(=N)N)NC1=O [IFX-026, c[Arg-Arg-Arg-Arg-Trp-Dip-Dip]] (cyclo([Dip][Dip]RRRRW)) |  |  |  |  |  |  |  |  | HC50 [1]: 240 |
| c[Arg-Arg-Arg-Arg-5brW-5brW-5brW-5brW] [IFX-039] | 25 µg/mL | 25 µg/mL | >100 µg/mL | >100 µg/mL |  |  |  |  |  |
| c[PEG1-Arg-Arg-Arg-Arg-Arg-PEG1-Dip-Dip-Dip] [IFX-050-1] | 32 µg/mL | 16 µg/mL | 128 µg/mL | 32 µg/mL |  |  |  |  |  |
| N=C(N)NCCC[C@H](NC(=O)[C@H](CCCNC(=N)N)NC(=O)[C@H](CCCNC(=N)N)NC(=O)[C@@H](N)CCCNC(=N)N)C(=O)N[C@@H](Cc1ccc(-c2ccccc2)cc1)C(=O)N[C@@H](Cc1ccc(-c2ccccc2)cc1)C(=O)N[C@@H](Cc1ccc(-c2ccccc2)cc1)C(=O)O [IFX-007-1, NH2-Arg-Arg-Arg-Arg-Bip-Bip-Bip-OH] (H-RRRR[Bip][Bip][Bip]-OH) |  |  |  |  | 6.2 µg/mL (≈ 4.72 µM) | 6.2 µg/mL (≈ 4.72 µM) | 25 µg/mL (≈ 19 µM) | >100 µg/mL |  |
| N=C(N)NCCC[C@@H]1NC(=O)[C@H](CCCNC(=N)N)NC(=O)[C@H](CCCNC(=N)N)NC(=O)[C@H](Cc2ccc(-c3ccccc3)cc2)NC(=O)[C@H](Cc2ccc(-c3ccccc3)cc2)NC(=O)[C@H](Cc2ccc(-c3ccccc3)cc2)NC(=O)[C@H](Cc2ccc(-c3ccccc3)cc2)NC(=O)[C@H](CCCNC(=N)N)NC1=O [IFX-004, c[Arg-Arg-Arg-Arg-Bip-Bip-Bip-Bip]] (cyclo([Bip][Bip][Bip][Bip]RRRR)) |  |  |  |  | >100 µg/mL | 50 µg/mL (≈ 32.9 µM) | >100 µg/mL | >100 µg/mL |  |
| c[PEG1-Arg-Arg-Arg-Arg-PEG1-Trp-Trp-Trp-Trp] [IFX-046] | 25 µg/mL | 25 µg/mL | 50 µg/mL | 50 µg/mL |  |  |  |  |  |
| N=C(N)NCCC[C@@H]1NC(=O)CNC(=O)CNC(=O)[C@H](Cc2c[nH]c3ccccc23)NC(=O)[C@H](Cc2c[nH]c3ccccc23)NC(=O)[C@H](Cc2c[nH]c3ccccc23)NC(=O)[C@H](Cc2c[nH]c3ccccc23)NC(=O)CNC(=O)CNC(=O)[C@H](CCCNC(=N)N)NC(=O)[C@H](CCCNC(=N)N)NC(=O)[C@H](CCCNC(=N)N)NC1=O [IFX-044] (cyclo(GGRRRRGGWWWW)) |  |  |  |  | 25 µg/mL (≈ 15.6 µM) | 25 µg/mL (≈ 15.6 µM) | 50 µg/mL (≈ 31.3 µM) | 50 µg/mL (≈ 31.3 µM) |  |
| c[PEG2-Arg-Arg-Arg-Arg-PEG2-Dip-Dip-Dip] [IFX-049] | 8 µg/mL | 8 µg/mL | 64 µg/mL | 128 µg/mL |  |  |  |  |  |
| c[Arg-Arg-Arg-Arg-5fW-5fW-5fW-5fW] [IFX-038] | 25 µg/mL | 12.5 µg/mL | 100 µg/mL | 50 µg/mL |  |  |  |  |  |
| N=C(N)NCCC[C@@H]1NC(=O)[C@H](CCCNC(=N)N)NC(=O)[C@H](CCCNC(=N)N)NC(=O)[C@H](Cc2ccc(-c3ccccc3)cc2)NC(=O)[C@H](Cc2ccc(-c3ccccc3)cc2)NC(=O)[C@H](Cc2ccc(-c3ccccc3)cc2)NC(=O)[C@H](CCCNC(=N)N)NC1=O [IFX-007, c[Arg-Arg-Arg-Arg-Bip-Bip-Bip]] (cyclo([Bip][Bip][Bip]RRRR)) |  |  |  |  | 6.2 µg/mL (≈ 4.79 µM) | 3.1 µg/mL (≈ 2.39 µM) | 25 µg/mL (≈ 19.3 µM) | >100 µg/mL |  |
| c[Arg-arg-PEG4-Arg-arg-Trp-naI-naI] [IFX-052] | 32 µg/mL | 32 µg/mL | 128 µg/mL | 64 µg/mL |  |  |  |  |  |
| c[PEG2-Arg-Arg-Arg-Arg-PEG2-Trp-Trp-Trp-Trp] [IFX-047] | 50 µg/mL | 50 µg/mL | 50 µg/mL | 100 µg/mL |  |  |  |  |  |
| N=C(N)NCCC[C@@H]1NC(=O)[C@H](CCCNC(=N)N)NC(=O)[C@H](Cc2c[nH]c3ccccc23)NC(=O)[C@H](Cc2c[nH]c3ccccc23)NC(=O)[C@H](Cc2c[nH]c3ccccc23)NC(=O)[C@H](Cc2c[nH]c3ccccc23)NC(=O)[C@H](Cc2c[nH]c3ccccc23)NC(=O)[C@H](Cc2c[nH]c3ccccc23)NC(=O)[C@H](Cc2c[nH]c3ccccc23)NC(=O)[C@H](CCCNC(=N)N)NC1=O [IFX-306] (cyclo(RRRWWWWWWW)) |  |  |  |  |  |  |  |  | MIC P. aeruginosa ATCC 27883 ([4]; Table 19): 256 µg/mL (≈ 144 µM) |
